Read-outs that look alike come from different tables or passages of the source.

For one assay, the system named is CFSE-labeled CD4 T-cells. Type of assay: cell-based, human. Particulars: for indirect killing (loss) of resting CFSE-labeled CD4 T-cells: NL4-3-infected effector cells.
In assay [1] the test system is CD4 T cells in HIV-1 (NL4-3)-infected HLACs. Kind of assay: CD4 T-cell death in HIV-1-infected HLACs, viable CD4 T cells by flow cytometry. The settings on record: FIG. 15, 4 different donors. The format is cell-based, human.
Another assay relates to ISRE-GFP H35 cells. The assay can be described thus: ISRE-GFP H35 reporter cells. Type of assay: cell-based, rat. The settings on record: AZT 5 μM, efavirenz 100 nM, raltegravir 30 μM. How it is done:
Hepatocyte-derived reporter ISRE-GFP H35 cells were maintained as previously described (King et al., 2007, Lab Chip 7:77-85; Patel et al., 2009, Proc Natl Acad Sci USA 106:12867-12872). For microscopic imaging, ISRE-GFP reporter H35 cells were cultured on 35 mm glass bottom culture dishes (MatTeck) and were treated with AZT (5 μM), Efavirenz (100 nM), or Raltegravir (30 μM) 12 hours before infection. Cells were then infected with 2 μg/ml of replication competent VSV-G pseudotyped NL4-3. After 48 hours incubation at 37° C., cells were fixed in 2% paraformaldehyde at 25° C. for 1 hour, washed with PBS and stained with 10 μg/ml Hoechst 33342 (Invitrogen) and 1 μg/ml 7-AAD (eBioscience) for 15 min at 25° C. Cells were washed 3 times with PBS and were analyzed with an Axio observer Z1 microscope (Zeiss) equipped with an EC Plan NEOFLUAR 10×/0.3 PHM27 objective, filter sets 38HE, 45, and 49, and an Axiocam MRM REV 3.

A further assay relates to HLAC CD4 T-cells. The assay can be described thus: Spinoculation of HLAC with HIV-1, CD4 T-cell depletion. Type of assay: cell-based, human. Particulars: ≧2 μg p24gag/200 μl, within 12 hours. Here is the method: (A) The spinoculation procedure. (B) Flow cytometry of viable CD4 versus CD8-T-cells in HLAC three days after spinoculation in the presence of the indicated drugs. Data represent live-gated cells, based on the forward-scatter versus side-scatter profile of the complete culture. Of note, apoptotic cells were included in the analysis of caspases activity and cytokine expression (FIG. 10E, F). Drugs concentrations: AZT 5 μM; Efavirenz 100 nM; AMD3100 250 nM; T20 10 μg/ml. The data are representative results of six independent experiments with six different donors. […] (C) Highly permissive SupT1 CD4 T leukemic cells were infected with NL4-3 and cultivated for 3 days to allow substantial infection but not syncytia formation. […] After 2.5 days of additional culture, the extent of syncytia formation in each sample was evaluated by light microscopy. […] Results are representative of three independent experiments.
Fresh HLAC cells are cultured overnight in a V-bottom 96-well plate (1×10^6 cells/well) in the presence of drugs and then chilled on ice. […] The cold temperature allows virion attachment but prevents virion fusion. HIV-coated cells are then tightly packed into a pellet by high-speed centrifugation (1200 g) for 2 hours at 4° C. This step presses the virus between cell membranes, exerting a uniform and consistent attachment. […]

In the case of `c1cc(CN2CCCNCCNCCCNCC2)ccc1CN1CCCNCCNCCCNCC1` [AMD3100], the “indirect killing of CFSE-labeled CD4 T-cells” value with CFSE-labeled CD4 T-cells (WEAU 16-8 (R5/X4)-infected effector cells) is on record as “prevented indirect killing”. Further, the “AZT-induced killing of activated CFSE-labeled cells” value in the assay on CFSE-labeled CD4 T-cells (activated target cells in the presence of AZT) is recorded as “prevented the AZT-induced killing”. In assay [1], the “death of infected CD4 T-cells” value is on record as “inhibit the death of infected CD4 T-cells”.
With `Cc1cn([C@H]2C[C@H](N=[N+]=[N-])[C@@H](CO)O2)c(=O)[nH]c1=O` [AZT], the “depletion of activated CFSE-labeled CD4 T-cells” value in the assay on CFSE-labeled CD4 T-cells (AZT-resistant HIV-1 clones, AZT 0.5 μM) is “did not deplete”; in the assay with CFSE-labeled CD4 T-cells (PHA and IL-2 activated target cells, NL4-3 effectors), “extensively depleted in cultures containing AZT”. In addition, in the assay on CFSE-labeled CD4 T-cells, the “indirect killing (loss) of resting CFSE-labeled CD4 T-cells” value (“indirect killing (loss)” for short) is on record as “robust”. For the same molecule, in the assay on ISRE-GFP H35 cells, the “GFP expression and cell death induced by VSV-G pseudotyped HIV-1 virions” value is “induced GFP expression and cell death in the presence or absence of AZT”.
Turning to `O=C1Nc2ccc(Cl)cc2[C@@](C#CC2CC2)(C(F)(F)F)O1` [efavirenz], the “indirect killing (loss)” value in the assay with CFSE-labeled CD4 T-cells was “blocked indirect killing of resting CD4 T-cells as efficiently as AMD3100”. Also, the “CD4 T-cell killing after spinoculation with high doses of HIV-1” value in the assay with HLAC CD4 T-cells was “is not prevented”. Besides, in the assay with ISRE-GFP H35 cells, the “GFP expression and cell death induced by VSV-G pseudotyped HIV-1 virions” value is “blocked”. Besides, the “death of infected CD4 T-cells” value in assay [1] is reported as “inhibit the death of infected CD4 T-cells”.
enfuvirtide: the “indirect killing of CFSE-labeled CD4 T-cells” value in the assay on CFSE-labeled CD4 T-cells (GIA-SKY (T20-dependent)-infected effector cells, 1 μg/ml T20) was “Indirect killing was observed”; in the assay on CFSE-labeled CD4 T-cells (SIM (T20-resistant)-infected effector cells), “did not inhibit indirect killing”. For the same molecule, in the assay with CFSE-labeled CD4 T-cells, the “indirect killing (loss)” value is reported as “greatly inhibited indirect killing”. In the assay with HLAC CD4 T-cells, the “CD4 T-cell killing after spinoculation with high doses of HIV-1” value is recorded as “prevented CD4 T-cell killing”.

Source of the values: patent US9352010B2, “Treatment of HIV-1 infection and AIDS” (The J. David Gladstone Institutes, priority 2011, dated 2016).
